The text below walks through data of patent US11254668B2, “Pyrazolo[1,5-A]pyrazin-4-yl and related derivatives” (Pfizer Inc., priority 2017, dated 2022).

Like-named read-outs stand apart in the source and are kept apart here.

Common to all, as to assay type: biochemical
One experiment addresses TYK2 (Homo sapiens (Human), UniProt P29597). The experiment can be described thus: JAK Caliper Enzyme Assay at 1 mM ATP, TYK2. Here is the method:
(§1) Compounds of the invention were evaluated by in vitro methods to determine their respective ability to inhibit the JAK kinases (TYK2, JAK1, JAK2, JAK3).
(§2) The human JAK inhibitory activity was determined by using a microfluidic assay to monitor phosphorylation of a synthetic peptide by the recombinant human kinase domain of each of the four members of the JAK family, JAK1, JAK2, JAK3 and TYK2. […] Each assay condition was optimized for enzyme concentration and room temperature incubation time to obtain a conversion rate of 20% to 30% phosphorylated peptide product. Reactions were terminated by the addition of stop buffer containing EDTA. Utilizing the LabChip 3000 mobility shift technology (Caliper Life Science), each assay reaction was sampled to determine the level of phosphorylation. This technology is separation-based, allowing direct detection of fluorescently labeled substrates and products. Separations are controlled by a combination of vacuum pressure and electric field strength optimized for each peptide substrate.
(§3) JAK Caliper Enzyme Assay at 1mM ATP
(§4) Compounds were added to a 384-well plate.
(§5) The data was collected using the HTS Well Analyzer software from Caliper Life Sciences. The data output for data analysis is the percent product converted calculated on peak height (Equation 1). % product converted=100*((product)/(product+substrate)) Equation 1: […]
(§6) The percent effect at each compound concentration was calculated based on the positive and negative control well contained within each assay plate (Equation 2). […] The negative control wells contained DMSO alone (at the same concentration as the compound wells) that was used to set the baseline activity in the assay (i.e., uninhibited JAK1, JAK2, JAK3 or TYK2). % effect=100*([…](positive control-negative control)) Equation 2: […]
(§7) The percent effect was plotted against the compound concentration compound.

A further experiment concerns the target JAK1 (Homo sapiens (Human), UniProt P23458). The experiment in a line: JAK Caliper Enzyme Assay at 1 mM ATP, JAK1. Here is the method: as §1, §2, §3, §4, §5, §6, §7
The next experiment concerns the target JAK2 (Homo sapiens (Human), UniProt O60674). The experiment can be described thus: JAK Caliper Enzyme Assay at 1 mM ATP, JAK2. Here is the method: as §1, §2, §3, §4, §5, §6, §7
The target in a further experiment is JAK3 (Homo sapiens (Human), UniProt P52333). The experiment can be described thus: JAK Caliper Enzyme Assay at 1 mM ATP, JAK3. Here is the method: as §1, §2, §3, §4, §5, §6, §7
Chain of JAK3 (P52333 822-1111): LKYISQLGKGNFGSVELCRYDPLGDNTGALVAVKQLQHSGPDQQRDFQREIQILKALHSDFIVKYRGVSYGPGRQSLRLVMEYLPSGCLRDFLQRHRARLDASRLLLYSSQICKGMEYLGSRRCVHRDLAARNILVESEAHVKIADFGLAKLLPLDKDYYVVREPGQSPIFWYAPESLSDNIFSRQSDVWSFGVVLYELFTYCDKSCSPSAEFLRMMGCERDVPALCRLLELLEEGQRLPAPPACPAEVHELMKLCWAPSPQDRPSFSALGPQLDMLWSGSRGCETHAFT

Chain of JAK1 (P23458 875-1153): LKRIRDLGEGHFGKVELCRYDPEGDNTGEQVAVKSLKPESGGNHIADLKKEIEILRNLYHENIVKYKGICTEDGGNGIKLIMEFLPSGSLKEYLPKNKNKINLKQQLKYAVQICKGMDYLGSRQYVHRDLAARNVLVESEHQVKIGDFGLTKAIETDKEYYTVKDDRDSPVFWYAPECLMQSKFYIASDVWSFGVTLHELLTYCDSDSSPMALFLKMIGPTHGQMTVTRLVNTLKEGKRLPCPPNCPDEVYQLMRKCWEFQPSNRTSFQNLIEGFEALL
Chain of JAK2 (O60674 849-1124): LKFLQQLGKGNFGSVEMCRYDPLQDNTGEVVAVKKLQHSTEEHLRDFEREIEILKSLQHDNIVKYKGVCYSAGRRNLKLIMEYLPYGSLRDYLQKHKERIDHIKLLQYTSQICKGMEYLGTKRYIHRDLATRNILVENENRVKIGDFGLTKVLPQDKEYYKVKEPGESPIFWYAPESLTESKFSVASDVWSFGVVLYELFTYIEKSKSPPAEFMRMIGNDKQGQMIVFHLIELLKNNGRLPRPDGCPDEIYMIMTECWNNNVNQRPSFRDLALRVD
Chain of TYK2 (P29597 897-1176): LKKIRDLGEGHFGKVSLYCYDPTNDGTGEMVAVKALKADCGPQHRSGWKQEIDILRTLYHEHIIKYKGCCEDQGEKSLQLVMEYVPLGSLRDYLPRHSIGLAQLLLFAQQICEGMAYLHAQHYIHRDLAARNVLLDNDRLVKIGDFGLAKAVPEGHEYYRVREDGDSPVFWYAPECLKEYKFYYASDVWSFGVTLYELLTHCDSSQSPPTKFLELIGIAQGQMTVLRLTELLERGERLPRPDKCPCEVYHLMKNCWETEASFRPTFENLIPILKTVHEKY

As a reminder, the IC50 is the concentration needed to halve the response being measured. With “2-[3-{4-[7-(1-methyl-1H-pyrazol-4-yl)-1,6-naphthyridin-5-yl]-1H-pyrazol-1-yl}-1-(2,2,2-trifluoroethyl)azetidin-3- [Example 5]”, the IC50 on TYK2 was 1110 nM; at JAK1, 2820 nM; on JAK2, 2950 nM; at JAK3, > 10 µM.
For `N#CCC1(n2cc(-c3nc(-c4cn[nH]c4)cc4ncccc34)cn2)CN(CC(F)(F)F)C1` [Example 1, [3-{4-[7-(1H-pyrazol-4-yl)-1,6-naphthyridin-5-yl]-1H-pyrazol-1-yl}-1-(2,2,2-trifluoroethyl)azetidin-3-yl]acetonitrile], in that order: 15 nM, 35 nM, 39 nM and 7.14 µM.
For `N#CC[C@H]1C[C@](CC#N)(n2cc(-c3nc(-c4cn[nH]c4)cc4ncccc34)cn2)C1` [Example 2, 2,2′-(trans-1-{4-[7-(1H-pyrazol-4-yl)-1,6-naphthyridin-5-yl]-1H-pyrazol-1-yl}cyclobutane-1,3-diyl)diacetonitrile], in that order: 50 nM, 86 nM, 127 nM and > 10 µM.
With `N#CCC1CC(CC#N)(n2cc(-c3nc(-c4cn[nH]c4)cc4ncccc34)cn2)C1` (stereo not drawn) [Example 3, 2,2′-(cis-1-{4-[7-(1H-pyrazol-4-yl)-1,6-naphthyridin-5-yl]-1H-pyrazol-1-yl}cyclobutane-1,3-diyl)diacetonitrile], the IC50 at TYK2 amounted to 14 nM; on JAK1 it was 37 nM; on JAK2, 26 nM; on JAK3, 5.98 µM.
On to `Cn1cc(-c2cc3ncccc3c(-c3cnn(C4(CC#N)CN(CC(F)(F)F)C4)c3)n2)cn1` [Example 4, [3-{4-[7-(1-methyl-1H-pyrazol-4-yl)-1,6-naphthyridin-5-yl]-1H-pyrazol-1-yl}-1-(2,2,2-trifluoroethyl)azetidin-3-yl]acetonitrile], for which the IC50 at TYK2 was 17 nM; on JAK1, 97 nM; on JAK2, 26 nM; at JAK3 it was 5.17 µM.
The corresponding values for `CO[C@H]1C[C@@](CC#N)(n2cc(-c3nc(-c4cnn(CCO)c4)cc4ncccc34)cn2)C1` [Example 8, [cis-1-(4-{7-[1-(2-hydroxyethyl)-1H-pyrazol-4-yl]-1,6-naphthyridin-5-yl}-1H-pyrazol-1-yl)-3-methoxycyclobutyl]acetonitrile] are 130 nM, 661 nM, 126 nM and > 10 µM.
Consider `CO[C@H]1C[C@](CC#N)(n2cc(-c3nc(-c4cnn(CCO)c4)cc4ncccc34)cn2)C1` [Example 9, [trans-1-(4-{7-[1-(2-hydroxyethyl)-1H-pyrazol-4-yl]-1,6-naphthyridin-5-yl}-1H-pyrazol-1-yl)-3-methoxycyclobutyl]acetonitrile], for which the IC50 on TYK2 was 77 nM; on JAK1 it was 520 nM; on JAK2, 107 nM; on JAK3, > 10 µM.
For `N#CCC1(n2cc(-c3nc(-c4cnn(C5CCOCC5)c4)cc4ncccc34)cn2)CN(CC(F)(F)F)C1` [Example 11, [3-(4-{7-[1-(tetrahydro-2H-pyran-4-yl)-1H-pyrazol-4-yl]-1,6-naphthyridin-5-yl}-1H-pyrazol-1-yl)-1-(2,2,2-trifluoroethyl)azetidin-3-yl]acetonitrile], in that order: 21 nM, 70 nM, 14 nM and 2.62 µM.
For `CO[C@H]1C[C@@](CC#N)(n2cc(-c3nc(-c4cc(CO)n[nH]4)cc4ncccc34)cn2)C1` [Example 12, [cis-1-(4-{7-[3-(hydroxymethyl)-1H-pyrazol-5-yl]-1,6-naphthyridin-5-yl}-1H-pyrazol-1-yl)-3-methoxycyclobutyl]acetonitrile], in that order: 63 nM, 407 nM, 101 nM and > 10 µM.
For `CO[C@H]1C[C@](CC#N)(n2cc(-c3nc(-c4cc(CO)n[nH]4)cc4ncccc34)cn2)C1` [Example 13, [trans-1-(4-{7-[3-(hydroxymethyl)-1H-pyrazol-5-yl]-1,6-naphthyridin-5-yl}-1H-pyrazol-1-yl)-3-methoxycyclobutyl]acetonitrile], in that order: 42 nM, 266 nM, 82 nM and > 10 µM.
As to `N#CCC1(n2ccc(-c3nc(Cl)cc4ncccc34)n2)CN(CC(F)(F)F)C1` [Example 14, {3-[3-(7-chloro-1,6-naphthyridin-5-yl)-1H-pyrazol-1-yl]-1-(2,2,2-trifluoroethyl)azetidin-3-yl}acetonitrile], the IC50 on TYK2 was 1470 nM; on JAK1 it was 8960 nM; at JAK2 it was > 10000 nM; on JAK3, > 10 µM.
For the compound `N#CCC1(n2ccc(-c3nccc4ncccc34)n2)CN(CC(F)(F)F)C1` [Example 15, {3-[3-(1,6-naphthyridin-5-yl)-1H-pyrazol-1-yl]-1-(2,2,2-trifluoroethyl)azetidin-3-yl}acetonitrile], the IC50 is 7680 nM at TYK2, > 10000 nM on JAK1, > 10000 nM at JAK2 and > 10 µM at JAK3.
Regarding `N#CCC1(n2ccc(-c3nc(-c4cc[nH]n4)cc4ncccc34)n2)CN(CC(F)(F)F)C1` [Example 16, [3-{3-[7-(1H-pyrazol-3-yl)-1,6-naphthyridin-5-yl]-1H-pyrazol-1-yl}-1-(2,2,2-trifluoroethyl)azetidin-3-yl]acetonitrile], the IC50 at TYK2 was 23 nM; at JAK1, 475 nM; on JAK2, 431 nM; at JAK3 it was > 10 µM.
Regarding `CS(=O)(=O)N1CC(CC#N)(n2ccc(-c3nc(-c4ccn[nH]4)cc4ncccc34)n2)C1` [Example 17, [1-(methylsulfonyl)-3-{3-[7-(1H-pyrazol-5-yl)-1,6-naphthyridin-5-yl]-1H-pyrazol-1-yl}azetidin-3-yl]acetonitrile], the IC50 on TYK2 was 44 nM; at JAK1, 1020 nM; at JAK2, 464 nM; at JAK3, > 10 µM.
The corresponding values for `N#CCC1(n2ccc(-c3nc(-c4ccn[nH]4)cc4ncccc34)n2)CN(S(=O)(=O)C2COC2)C1` [Example 19, [1-(oxetan-3-ylsulfonyl)-3-{3-[7-(1H-pyrazol-5-yl)-1,6-naphthyridin-5-yl]-1H-pyrazol-1-yl}azetidin-3-yl]acetonitrile] are 26 nM, 175 nM, 188 nM and 9.91 µM.
For `N#CC[C@]1(n2ccc(-c3nc(-c4ccn[nH]4)cc4ncccc34)n2)C[C@H](C#N)C1` [Example 20, trans-3-(cyanomethyl)-3-{3-[7-(1H-pyrazol-5-yl)-1,6-naphthyridin-5-yl]-1H-pyrazol-1-yl}cyclobutanecarbonitrile], in that order: 25 nM, 381 nM, 240 nM and > 10 µM.
Consider `Cn1ncc(-c2cc(-c3cnn([C@]4(CC#N)C[C@@H](C#N)C4)n3)c3cccnc3c2)c1C(N)=O` [Example 335, 4-(5-{2-[trans-3-cyano-1-(cyanomethyl)cyclobutyl]-2H-1,2,3-triazol-4-yl}quinolin-7-yl)-1-methyl-1H-pyrazole-5-carboxamide], for which the IC50 was 5270 nM on TYK2 and > 10000 nM on JAK2.
For `N#CC[C@]1(n2ncc(-c3cc(-c4cncc(N)n4)cc4ncccc34)n2)C[C@H](C#N)C1` [Example 397, trans-3-{4-[7-(6-aminopyrazin-2-yl)quinolin-5-yl]-2H-1,2,3-triazol-2-yl}-3-(cyanomethyl)cyclobutanecarbonitrile], the IC50 is > 10000 nM at JAK1 (JAK Caliper enzyme assay), 8950 nM at JAK2 (JAK Caliper enzyme assay) and > 10 µM at JAK3 (JAK Caliper enzyme assay).
On to `COc1nc(-c2cc(-c3cnn([C@]4(CC#N)C[C@H](C#N)C4)c3)n3ccnc3c2)ccc1N` [Example 471, cis-3-{4-[7-(5-amino-6-methoxypyridin-2-yl)imidazo[1,2-a]pyridin-5-yl]-1H-pyrazol-1-yl}-3-(cyanomethyl)cyclobutanecarbonitrile], for which the IC50 at TYK2 (JAK Caliper enzyme assay) was 33 nM; on JAK1 (JAK Caliper enzyme assay) it was 631 nM; on JAK3 (JAK Caliper enzyme assay), > 10 µM.
The corresponding values for `Cn1cc(-c2cc(-c3ccn(C4(CC#N)CN(CC(F)(F)F)C4)n3)n3ccnc3c2)cn1` [Example 472, [3-{3-[7-(1-methyl-1H-pyrazol-4-yl)imidazo[1,2-a]pyridin-5-yl]-1H-pyrazol-1-yl}-1-(2,2,2-trifluoroethyl)azetidin-3-yl]acetonitrile] are 5670 nM, > 10000 nM and > 10 µM.
